Converted amounts (≈) assume the structure as drawn. The source made the active and inactive calls. The rule behind the calls is not given here.
What was measured:
[1] = Lipophilicity, log D of the compound; type: physicochemical; conditions: octanol/water
[2] = system: Mycobacterium tuberculosis; experiment: Antimicrobial activity against Mycobacterium tuberculosis H37Rv ATCC 27294 after 5 days by microdilution method; type: functional; conditions: H37Rv ATCC 27294, 120 h
[3] = Cytotoxicity against human THP1 cells after 24 hrs by resazurin assay; type: cell-based, THP-1; conditions: read-out: MIC
[4] = system: Mycobacterium tuberculosis; experiment: Antimicrobial activity against Mycobacterium tuberculosis DKU 76 clinical isolate after 2 to 3 weeks; type: functional, organism-based
[5] = system: Mycobacterium tuberculosis; experiment: Antimicrobial activity against Mycobacterium tuberculosis ATCC 25618 after 2 to 3 weeks; type: functional, organism-based
[6] = system: Haemophilus influenzae; experiment: Antimicrobial activity against Haemophilus influenzae ARC446 after 5 days by microdilution method; type: functional; conditions: ARC446, 120 h
[7] = system: Pseudomonas aeruginosa; experiment: Antimicrobial activity against Pseudomonas aeruginosa ARC545 after 5 days by microdilution method; type: functional; conditions: ARC545, 120 h
[8] = system: Escherichia coli; experiment: Antimicrobial activity against Escherichia coli ARC523 after 5 days by microdilution method; type: functional; conditions: ARC523, 120 h
[9] = target: Cytochrome P450 2C19 (Homo sapiens, UniProt P33261); experiment: Inhibition of CYP2C19 (unknown origin); type: ADME
[10] = system: Mycobacterium tuberculosis; experiment: Antimicrobial activity against Mycobacterium tuberculosis DKU211 clinical isolate after 2 to 3 weeks; type: functional, organism-based
[11] = system: Escherichia coli; experiment: Antimicrobial activity against Escherichia coli ARC524 after 5 days by microdilution method; type: functional; conditions: ARC524, 120 h
[12] = system: Pseudomonas aeruginosa; experiment: Antimicrobial activity against Pseudomonas aeruginosa ARC546 after 5 days by microdilution method; type: functional; conditions: ARC546, 120 h
[13] = system: Streptococcus pneumoniae; experiment: Antimicrobial activity against Streptococcus pneumoniae ARC548 after 5 days by microdilution method; type: functional; conditions: ARC548, 120 h
[14] = system: Klebsiella pneumoniae; experiment: Antimicrobial activity against Klebsiella pneumoniae ARC1865 after 5 days by microdilution method; type: functional; conditions: ARC1865, 120 h
[15] = system: Mycobacterium tuberculosis; experiment: Antimicrobial activity against Mycobacterium tuberculosis JALMA clinical isolate after 2 to 3 weeks; type: functional, organism-based
[16] = system: Mycobacterium tuberculosis; experiment: Antimicrobial activity against Mycobacterium tuberculosis 97A clinical isolate after 2 to 3 weeks; type: functional, organism-based
[17] = system: Mycobacterium tuberculosis; experiment: Antimicrobial activity against Mycobacterium tuberculosis DKU220 clinical isolate after 2 to 3 weeks; type: functional, organism-based
[18] = system: Mycobacterium tuberculosis; experiment: Antimicrobial activity against Mycobacterium tuberculosis Erdman after 2 to 3 weeks; type: functional, organism-based
[19] = system: Mycobacterium tuberculosis; experiment: Antimicrobial activity against Mycobacterium tuberculosis Harlingen after 2 to 3 weeks; type: functional, organism-based
[20] = system: Haemophilus influenzae; experiment: Antimicrobial activity against Haemophilus influenzae ARC158 after 5 days by microdilution method; type: functional; conditions: ARC158, 120 h
[21] = system: Candida albicans; experiment: Antimicrobial activity against Candida albicans ARC526 after 5 days by microdilution method; type: functional; conditions: ARC526, 120 h
[22] = system: Streptococcus pyogenes; experiment: Antimicrobial activity against Streptococcus pyogenes after 5 days by microdilution method; type: functional; conditions: 120 h
[23] = system: Mycobacterium tuberculosis; experiment: Antimicrobial activity against ofloxacin Mycobacterium tuberculosis 12119 after 2 to 3 weeks; type: functional, organism-based
[24] = system: Mycobacterium tuberculosis; experiment: Antimicrobial activity against Mycobacterium tuberculosis Beijing after 2 to 3 weeks; type: functional, organism-based
[25] = system: Mycobacterium tuberculosis; experiment: Antimicrobial activity against Mycobacterium tuberculosis ATCC 35811 after 2 to 3 weeks; type: functional, organism-based
[26] = system: Staphylococcus aureus; experiment: Antimicrobial activity against Staphylococcus aureus ARC517 after 5 days by microdilution method; type: functional; conditions: ARC517, 120 h

Cytochrome P450 2C19, sequence (P33261 whole entry): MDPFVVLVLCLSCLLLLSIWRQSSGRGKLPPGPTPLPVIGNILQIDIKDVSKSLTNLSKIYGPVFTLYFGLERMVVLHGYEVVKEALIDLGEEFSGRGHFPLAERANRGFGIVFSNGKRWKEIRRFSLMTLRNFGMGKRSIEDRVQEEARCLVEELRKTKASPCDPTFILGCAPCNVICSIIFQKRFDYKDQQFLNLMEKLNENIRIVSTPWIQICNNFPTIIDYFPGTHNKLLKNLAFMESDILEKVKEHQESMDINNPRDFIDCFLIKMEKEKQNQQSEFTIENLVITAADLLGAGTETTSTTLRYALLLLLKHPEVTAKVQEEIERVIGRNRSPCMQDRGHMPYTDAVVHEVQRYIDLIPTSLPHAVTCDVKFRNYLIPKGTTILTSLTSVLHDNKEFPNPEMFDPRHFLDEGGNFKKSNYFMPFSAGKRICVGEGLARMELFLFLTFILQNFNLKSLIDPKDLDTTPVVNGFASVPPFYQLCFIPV

Cc1cc(OCC2CCCO2)ccc1-c1ccc(COc2ncccc2C(N)=O)nc1 (stereo unspecified)
logD [1]: 2.8 | MIC [2]: 4.7 µM (≈ 1.97 µg/mL) | MCC at 24 h [3]: > 50 µM

NC(=O)c1cccnc1OCc1ncc(-c2ccc(OCCCF)cc2Cl)cn1
Activity [4]: Active | Activity [5]: Active | MIC80 [6]: > 60 µM | MIC [7]: > 60 µM | logD [1]: 2.8 | MIC80 [8]: > 60 µM | IC50 [9]: 18 µM | Activity [10]: Active | MIC80 [11]: > 60 µM | MIC80 [12]: > 60 µM | MIC [2]: 0.12 µM (≈ 0.05 µg/mL) | MIC80 [13]: > 60 µM | MCC at 24 h [3]: > 250 µM | MIC80 [14]: > 60 µM | Activity [15]: Active | Activity [16]: Active | Activity [17]: Active | Activity [18]: Active | Activity [19]: Active | MIC80 [20]: > 60 µM | MIC80 [21]: > 60 µM | MIC80 [22]: > 60 µM | Activity [23]: Active | Activity [24]: Active | Activity [25]: Active | MIC80 [26]: > 60 µM

COCCOc1ccc(-c2cnc(COc3ncccc3C(N)=O)nc2)c(C)c1
MIC80 [6]: > 60 µM | MIC [7]: > 60 µM | MIC80 [8]: > 60 µM | MIC80 [11]: > 60 µM | MIC80 [12]: > 60 µM | MIC [2]: 1.5 µM (≈ 0.592 µg/mL) | MIC80 [13]: > 60 µM | MCC at 24 h [3]: > 50 µM | MIC80 [14]: > 60 µM | MIC80 [20]: > 60 µM | MIC80 [21]: > 60 µM | MIC80 [22]: > 60 µM | MIC80 [26]: > 60 µM

COc1ccc(-c2ccc(COc3ncccc3C(N)=O)nc2)c(C)c1
MIC [2]: 22 µM (≈ 7.69 µg/mL) | MCC at 24 h [3]: > 50 µM

COCCOc1ccc(-c2ccc(COc3nccc(OC)c3C(N)=O)nc2)c(C)c1
MIC [2]: 6.2 µM (≈ 2.63 µg/mL) | MCC at 24 h [3]: > 50 µM

COCCOc1ccc(-c2ccc(COc3ncccc3C(=O)NCCO)nc2)c(C)c1
MIC [2]: 4.5 µM (≈ 1.97 µg/mL) | MCC at 24 h [3]: > 50 µM

COc1ccc(-c2ccc(COc3ncccc3C(N)=O)nc2)c(Cl)c1
MIC [2]: 5.4 µM (≈ 2 µg/mL) | MCC at 24 h [3]: > 50 µM

COCCOc1ccc(-c2ccc(COc3ncccc3C(=O)N(C)C)nc2)c(C)c1
MIC [2]: > 75 µM | MCC at 24 h [3]: > 50 µM

COc1ccc(-c2ccc(COc3ncccc3C(N)=O)cc2)c(C)n1
MIC [2]: > 100 µM | MCC at 24 h [3]: > 50 µM

COCCOc1ccc(-c2ccc(COc3ncccc3C(=O)NC3CCN(C)CC3)nc2)c(C)c1
MIC [2]: 8.1 µM (≈ 3.97 µg/mL) | MCC at 24 h [3]: > 50 µM

CCN(CC)CCOc1ccc(-c2ccc(COc3ncccc3C(N)=O)nc2)c(C)c1
MIC [2]: > 100 µM

Cn1ccnc1-c1ccc(COc2ncccc2C(N)=O)cc1
MIC [2]: > 100 µM | MCC at 24 h [3]: > 50 µM

Cc1cc(OCCN2CCOCC2)ccc1-c1ccc(COc2ncccc2C(N)=O)nc1
MIC [2]: 8.9 µM (≈ 3.99 µg/mL) | MCC at 24 h [3]: > 50 µM
